This test concerns the target T1, Human FAAH (Homo sapiens, UniProt O00519).
T1 construct: made in house
T1 sequence (O00519 1-579): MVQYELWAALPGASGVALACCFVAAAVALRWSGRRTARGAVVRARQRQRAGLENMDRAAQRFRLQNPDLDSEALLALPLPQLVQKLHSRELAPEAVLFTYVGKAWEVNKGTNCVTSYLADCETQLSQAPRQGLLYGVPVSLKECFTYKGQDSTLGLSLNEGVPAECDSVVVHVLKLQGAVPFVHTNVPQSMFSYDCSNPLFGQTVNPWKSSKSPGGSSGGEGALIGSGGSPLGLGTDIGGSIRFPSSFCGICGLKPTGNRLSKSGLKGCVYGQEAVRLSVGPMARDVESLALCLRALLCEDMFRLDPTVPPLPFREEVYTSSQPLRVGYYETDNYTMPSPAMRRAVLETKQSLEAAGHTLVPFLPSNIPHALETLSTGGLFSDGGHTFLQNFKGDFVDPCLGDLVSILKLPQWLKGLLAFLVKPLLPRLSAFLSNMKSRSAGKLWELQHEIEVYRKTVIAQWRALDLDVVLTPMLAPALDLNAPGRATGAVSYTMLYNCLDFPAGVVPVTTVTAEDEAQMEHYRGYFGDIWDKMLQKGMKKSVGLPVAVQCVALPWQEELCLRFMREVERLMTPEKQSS
The test is described as follows: FAAH assay (glutamate dehydrogenase-coupled, oleamide substrate, absorbance at 340 nm). Particulars: irreversible inhibition, 1-4 nM FAAH, pH 7.4, 30° C., 90 min; for kinact/KI: read-out: hFAAH kinact/Ki. The class given is biochemical. How it is done:
The FAAH assay was carried out in 384-well clear polystyrene plates in a total volume of 50 μl per well. All percents are by volume. To each well, was placed the reaction mixture (40 μl) containing 1-4 nM FAAH, 50 mM NaPi, pH 7.4, 3 mM α-ketoglutarate, 0.15 mM NADH, 7.5 U/ml glutamate dehydrogenase, 2 mM ADP, 1 mM EDTA, and 0.1% Triton X-100 (The concentration shown for each component is the final concentration in the assay). […] This was immediately followed by the addition of 5 μl oleamide (500 μM) dissolved in 75% EtOH/25% DMSO and the reaction mixture was mixed for 1.5 min. The final concentrations of DMSO and EtOH in the assay were each 7.5%.
Initial velocity data (V) were obtained from the slopes of the initial progressive curves. They were plotted as a function of substrate concentration and fit to the Michaelis-Menten equation (1) using Prism (GraphPad Software, Inc., San Diego, Calif.) software to obtain Km and Vmax values.
To obtain potencies of irreversible inhibitors, progressive curves consistent with first order inhibition kinetics (two-step irreversible inhibition mechanism) were fit to equation (2) by nonlinear least squares regressions to determine kobs values at each inhibitor concentration, where [P]t is the absorbance at time t, V0 is a constant related to the steady state rate of the uninhibited reaction, and kobs is the first order rate constant for enzyme inactivation. The inhibitor dissociation constant (Ki) and the first order rate
[formula] constant of enzyme inactivation at infinite inhibitor concentration (kinact) were then obtained by fitting the kobs vs. [I] curves to equation (3).

The source of these data is patent US8044052B2, “Biaryl ether urea compounds” (Pfizer Inc., priority 2006, dated 2011).

Counter-ions that a name gives are not always drawn.

Regarding `O=C(Nc1cccnn1)N1CCC(=Cc2cccc(Oc3ccccc3)n2)CC1` [Example 91, 4-((6-phenoxypyridin-2-yl)methylene)-N-(pyridazin-3-yl)piperidine-1-carboxamide], the kinact/KI came to 636 M⁻¹ s⁻¹.

On to `O=C(Nc1ccccn1)N1CCC(=Cc2cccc(Oc3ccc(C(F)(F)F)cn3)c2)CC1` [Example 9], for which the “hFAAH kinact/Ki” value was 3660 M⁻¹ s⁻¹.

Turning to `O=C(Nc1cccnn1)N1CCC(=Cc2cccc(Oc3ncc(Br)cn3)c2)CC1` [Example 37, 4-(3-(5-bromopyrimidin-2-yloxy)benzylidene)-N-(pyridazin-3-yl)piperidine-1-carboxamide], the kinact/KI was 15100 M⁻¹ s⁻¹.

For the compound `O=C(Nc1cccnc1)N1CCC(=Cc2cccc(OCc3ccccc3)c2)CC1` [Example 17, 4-[3-(benzyloxy)benzylidene]-N-pyridin-3-ylpiperidine-1-carboxamide], the kinact/KI came to 1620 M⁻¹ s⁻¹.

For the compound `CCc1cc(NC(=O)N2CCC(=Cc3cccc(Oc4ccc(C(F)(F)F)cn4)c3)CC2)[nH]n1` [Example 80, N-(3-ethyl-1H-pyrazol-5-yl)-4-(3-{[5-(trifluoromethyl)pyridin-2-yl]oxy}benzylidene)piperidine-1-carboxamide trifluoroacetate], the kinact/KI was 353 M⁻¹ s⁻¹. Same read-out and setting: with `COc1ccc(NC(=O)N2CCC(=Cc3cccc(Oc4ccc(C(F)(F)F)cn4)c3)CC2)c(C)n1` [Example 140, N-(6-methoxy-2-methylpyridin-3-yl)-4-(3-{[5-(trifluoromethyl)pyridin-2-yl]oxy}benzylidene)piperidine-1-carboxamide] the figure was 837 M⁻¹ s⁻¹.

For the compound `COc1ccc(NC(=O)N2CCC(=Cc3cccc(Oc4ccc(C(F)(F)F)cn4)c3)CC2)c(OC)n1` [Example 127, N-(2,6-dimethoxypyridin-3-yl)-4-(3-{[5-(trifluoromethyl)pyridin-2-yl]oxy}benzylidene)piperidine-1-carboxamide], the kinact/KI amounted to 675 M⁻¹ s⁻¹. The same measure, in the same setting: to `O=C(Nc1cn[nH]c1)N1CCC(=Cc2cccc(Oc3ccc(C(F)(F)F)cn3)c2)CC1` [Example 138, N-1H-pyrazol-4-yl-4-(3-{[5-(trifluoromethyl)pyridin-2-yl]oxy}benzylidene)piperidine-1-carboxamide] belongs 4300 M⁻¹ s⁻¹; to `O=C(Nc1cccnc1)N1CCC(=C(Br)c2cccc(Oc3ccc(C(F)(F)F)cn3)c2)CC1` [Example 66, 4-(bromo(3-(5-(trifluoromethyl)pyridin-2-yloxy)phenyl)methylene)-N-(pyridin-3-yl)piperidine-1-carboxamide], 1560 M⁻¹ s⁻¹; to `COc1cc(Oc2cccc(C=C3CCN(C(=O)Nc4cccnn4)CC3)c2)ncn1` [Example 121, 4-{3-[(6-methoxypyrimidin-4-yl)oxy]benzylidene}-N-pyridazin-3-ylpiperidine-1-carboxamide], 896 M⁻¹ s⁻¹.

`O=C(Nc1cccnc1)N1CCC(=Cc2cccc(Oc3ccc(F)cc3)c2)CC1` [Example 20, 4-[3-(4-fluorophenoxy)benzylidene]-N-pyridin-3-ylpiperidine-1-carboxamide]: the kinact/KI worked out at 2380 M⁻¹ s⁻¹. On the same count and under the same terms, with `Cc1cccc(Oc2cccc(C=C3CCN(C(=O)Nc4cccnn4)CC3)c2)n1` [Example 41, 4-(3-(6-methylpyridin-2-yloxy)benzylidene)-N-(pyridazin-3-yl)piperidine-1-carboxamide] the figure was 687 M⁻¹ s⁻¹. As to `O=C(Nc1ccnnc1)N1CCC(=Cc2cccc(Oc3ccc(C(F)(F)F)cn3)c2)CC1` [Example 25, N-(pyridazin-4-yl)-4-(3-{[5-(trifluoromethyl)pyridin-2-yl]oxy}benzylidene)piperidine-1-carboxamide], the kinact/KI came to 12100 M⁻¹ s⁻¹. On the same count and under the same terms, with `COc1cncc(NC(=O)N2CCC(=Cc3cccc(Oc4ccc(C(F)(F)F)cn4)c3)CC2)n1` [Example 23, N-(6-methoxypyrazin-2-yl)-4-(3-{[5-(trifluoromethyl)pyridin-2-yl]oxy}benzylidene)piperidine-1-carboxamide] the figure was 2910 M⁻¹ s⁻¹. The same measure, in the same setting: with `O=C(Nc1ccc(C(F)(F)F)nc1)N1CCC(=Cc2cccc(Oc3ccc(C(F)(F)F)cn3)c2)CC1` [Example 126, N-[6-(trifluoromethyl)pyridin-3-yl]-4-(3-{[5-(trifluoromethyl)pyridin-2-yl]oxy}benzylidene)piperidine-1-carboxamide] the figure was 405 M⁻¹ s⁻¹; with `CC(C)Oc1ccc(Oc2cccc(C=C3CCN(C(=O)Nc4cccnn4)CC3)c2)nc1` [Example 52, 4-(3-(5-isopropoxypyridin-2-yloxy)benzylidene)-N-(pyridazin-3-yl)piperidine-1-carboxamide], 4090 M⁻¹ s⁻¹; with `Cc1nccnc1Oc1cccc(C=C2CCN(C(=O)Nc3cccnn3)CC2)c1` [Example 118, 4-{3-[(3-methylpyrazin-2-yl)oxy]benzylidene}-N-pyridazin-3-ylpiperidine-1-carboxamide], 191 M⁻¹ s⁻¹. On to `O=C(Nc1cccnn1)N1CCC(=Cc2cccc(Oc3ncc(-c4cccc(Cl)c4)cn3)c2)CC1` [Example 110, 4-(3-{[5-(3-chlorophenyl)pyrimidin-2-yl]oxy}benzylidene)-N-pyridazin-3-ylpiperidine-1-carboxamide], for which the kinact/KI was found to be 1020 M⁻¹ s⁻¹.

With `CCOc1cc(C=C2CCN(C(=O)Nc3cccnc3)CC2)cc(Oc2ccc(C(F)(F)F)cn2)c1` [Example 58, 4-(3-ethoxy-5-(5-(trifluoromethyl)pyridin-2-yloxy)benzylidene)-N-(pyridin-3-yl)piperidine-1-carboxamide], the kinact/KI was found to be 322 M⁻¹ s⁻¹. Same read-out and setting: to `O=C(Nc1onc2ccccc12)N1CCC(=Cc2cccc(Oc3ccc(C(F)(F)F)cn3)c2)CC1` [Example 6, N-2,1-benzisoxazol-3-yl-4-(3-{[5-(trifluoromethyl)pyridin-2-yl]oxy}benzylidene)piperidine-1-carboxamide] belongs 2510 M⁻¹ s⁻¹. As for “4-(3-(5-methylpyridin-2-yloxy)benzylidene)-N-pyridin-3-yl)piperidine-1-carboxamide [Example 44]”, the “hFAAH kinact/Ki” value is 9480 M⁻¹ s⁻¹. `O=C(Nc1cccnn1)N1CCC(=Cc2cccc(Oc3ncc(C4CC4)cn3)c2)CC1` [Example 106, 4-{3-[(5-cyclopropylpyrimidin-2-yl)oxy]benzylidene}-N-pyridazin-3-ylpiperidine-1-carboxamide]: the kinact/KI was 3330 M⁻¹ s⁻¹.

As for `O=C(Nc1cncc(Cl)n1)N1CCC(=Cc2cccc(Oc3ccc(C(F)(F)F)cn3)c2)CC1` [Example 27, N-(6-chloropyrazin-2-yl)-4-(3-{[5-(trifluoromethyl)pyridin-2-yl]oxy}benzylidene)piperidine-1-carboxamide], the kinact/KI stood at 3900 M⁻¹ s⁻¹. On to `Cc1ccc(Oc2cccc(C=C3CCN(C(=O)Nc4onc(C)c4C)CC3)c2)nc1` [Example 46, 4-(3-(5-methylpyridin-2-yloxy)benzylidene)-N-(3,4-dimethylisoxazol-5-yl)piperidine-1-carboxamide], for which the kinact/KI came to 3700 M⁻¹ s⁻¹.

As for `CCc1ccnc(NC(=O)N2CCC(=Cc3cccc(Oc4ccc(C(F)(F)F)cn4)c3)CC2)c1` [Example 141, N-(4-ethylpyridin-2-yl)-4-(3-{[5-(trifluoromethyl)pyridin-2-yl]oxy}benzylidene)piperidine-1-carboxamide], the kinact/KI came to 117 M⁻¹ s⁻¹. As to `Cc1cncc(NC(=O)N2CCC(=Cc3cccc(Oc4ccc(C(F)(F)F)cn4)c3)CC2)c1` [Example 7, N-(5-methylpyridin-3-yl)-4-(3-{[5-(trifluoromethyl)pyridin-2-yl]oxy}benzylidene)piperidine-1-carboxamide], the kinact/KI is 2880 M⁻¹ s⁻¹. In the case of “N-pyridin-4-yl-4-(3-{[5-(trifluoromethyl)pyridin-2-yl]oxy}benzylidene)piperidine-1-carboxamide trifluoroacetate [Example 76]”, the “hFAAH kinact/Ki” value came out at 2390 M⁻¹ s⁻¹.

On to `O=C(Nc1ncc(Br)cc1CO)N1CCC(=Cc2cccc(Oc3ccc(C(F)(F)F)cn3)c2)CC1` [Example 132, N-[5-bromo-3-(hydroxymethyl)pyridin-2-yl]-4-(3-{[5-(trifluoromethyl)pyridin-2-yl]oxy}benzylidene)piperidine-1-carboxamide], for which the kinact/KI was 105 M⁻¹ s⁻¹. As for `CCc1cc(Oc2cccc(C=C3CCN(C(=O)Nc4cccnn4)CC3)c2)nc(C(F)(F)F)n1` [Example 115, 4-(3-{[6-ethyl-2-(trifluoromethyl)pyrimidin-4-yl]oxy}benzylidene)-N-pyridazin-3-ylpiperidine-1-carboxamide], the kinact/KI was under 11.2 M⁻¹ s⁻¹.
